Reference: US20250275953A1, “VODOBATINIB FOR REDUCING PROGRESSION OF PARKINSON'S DISEASE” (Sun Pharma Advanced Research Company Ltd., priority 2022, published 2025)
“Also recorded” adds a separate entry of the source.

Tests used:
Abl (Q252H) = Abl (Q252H) (Homo sapiens, UniProt P00519, Q252H); experiment: Biochemical kinase assay, mutant Abl
Description: (§1) Conventional biochemical kinase assays, using radioactivity and fluorescence as readouts, were used to derive half maximal-inhibitory concentrations (IC50) values.

Abl (E255K) = Abl (E255K) (Homo sapiens, UniProt P00519, E255K); experiment: Biochemical kinase assay, mutant Abl
Description: as §1

Abl (F317L) = Abl (F317L) (Homo sapiens, UniProt P00519, F317L); experiment: Biochemical kinase assay, mutant Abl
Description: as §1

Abl (F317I) = Abl (F317I) (Homo sapiens, UniProt P00519, F317I); experiment: Biochemical kinase assay, mutant Abl
Description: as §1

Abl (Y253F) = Abl (Y253F) (Homo sapiens, UniProt P00519, Y253F); experiment: Biochemical kinase assay, mutant Abl
Description: as §1

Abl (H396P) = Abl (H396P) (Homo sapiens, UniProt P00519, H396P); experiment: Biochemical kinase assay, mutant Abl
Description: as §1

Abl (M351T) = Abl (M351T) (Homo sapiens, UniProt P00519, M351T); experiment: Biochemical kinase assay, mutant Abl
Description: as §1

[1] = Safety and tolerability, Parkinson's disease patients (NCT02970019); format: in vivo, human; details: for Possibly related AEs by subject: daily for 14 days
Description: Of these, 44 subjects completed the study. An additional 10 subjects were enrolled in the open label part of the study, of these, one subject was discontinued due to an AE of vomiting.
Safety population was comprised of 48 subjects (not including those in the open label cohorts) and PK population was comprised of 36 subjects from double blind part and 10 subjects from open label part of the study. No subjects were discontinued from the study due to protocol deviation.
Study NCT02970019 was a multi-center safety and tolerability study of vodobatinib in 60 subjects with Parkinson's Disease (diagnosed with PD according to the Brain Bank criteria of the United Kingdom Parkinson's Disease Society) who were randomized to receive placebo or various daily doses of vodobatinib for 14 days in a parallel assignment design with quadruple masking (participant, care provider, investigator, and outcomes assessor.) In study NCT02970019, consecutive cohorts of up to eight subjects received once-daily doses of 6, 12, 18, 24, 48, 96, 192, or 384 mg of study drug for 14 days, with six subjects in each cohort on vodobatinib and two subjects in each cohort on placebo. An alternating panel design was used such that subjects in the 6 and 18 mg cohorts were the same, and subjects in the 12 and 24 mg cohorts were the same, thus yielding 48 total individuals enrolled in the eight cohorts. There was a wash-out period of 14 days between each were studied in sequential ascending dose cohorts. In parallel to the double-blind cohorts, up to four subjects per dose cohort were enrolled in an open-label study of vodobatinib to receive 24, 48 or 96 mg once-daily doses of for 14 days. These subjects underwent lumbar puncture to collect CSF on Day 1, and 2-3 h after the last morning dose on Day 14. PK blood draws (for both double-blind and open label) were collected at pre-dose (˜30 min) and at 0.5, 1, 2, 4, 8, 12 and 24 h post-dose on Days 1 and 14.

[2] = Exposure on transition from capsule to powder, phase 2 study in early PD; format: in vivo, human; details: on average
Procedure: A phase 2, randomized, double-blind, placebo-controlled study of vodobatinib in approximately 504 subjects with early Parkinson's disease is ongoing. The subjects are being administered a low dose (96 mg capsule or 192 mg powder of vodobatinib) or high dose (192 mg capsule or 384 mg powder of vodobatinib). The subjects are initially administered the capsule and then transitioned to the powder. […] The objective of the study is to determine if vodobatinib reduces the rate of progression of early-stage Parkinson's disease over 40 weeks, as defined by the sum of the MDS-UPDRS (Movement Disorder Society-Unified Parkinson's Disease Rating Scale) Parts 2 and 3 scores.

Cc1ccc(C(=O)NNC(=O)c2c(C)cccc2Cl)cc1C#Cc1cnc2ccccc2c1 [N′-(2-chloro-6-methylbenzoyl)-4-methyl-3-[2-(3-quinolyl)ethynyl]-benzohydrazide]
IC50 (Abl (Q252H)): 0.8 nM
inhibition (Abl (E255K)): potently inhibit
inhibition (Abl (F317L)): potently inhibit
inhibition (Abl (F317I)): potently inhibit
IC50 (Abl (Y253F)): 1 nM
IC50 (Abl (H396P)): 0.5 nM
IC50 (Abl (M351T)): 0.8 nM
n/N (number of AEs per number of subjects in dose group) ([1]; 6 mg DB): 6 mg DB (5/8)
Possibly related AEs by subject ([1]; 6 mg DB, listed as Vodobatinib): Increased appetite, feet & ankle weakness, infraorbital puffiness,; also recorded: increased tremor and dry eyes
n/N (number of AEs per number of subjects in dose group) ([1]; 12 mg DB): 12 mg DB (3/8)
Possibly related AEs by subject ([1]; 12 mg DB, listed as Vodobatinib): Light-headedness; also recorded: Decreased balance & decreased gait
n/N (number of AEs per number of subjects in dose group) ([1]; 18 mg DB): 18 mg DB (3/6)
Possibly related AEs by subject ([1]; 18 mg DB): New onset atrial fibrillation and orthostasis (moderate severity)
n/N (number of AEs per number of subjects in dose group) ([1]; 24 mg DB): 24 mg DB (1/8)
Possibly related AEs by subject ([1]; 24 mg DB): None
n/N (number of AEs per number of subjects in dose group) ([1]; 24 mg OL): 24 mg OL (3/3)
Possibly related AEs by subject ([1]; 24 mg OL, listed as Vodobatinib): Vertigo, headache, nausea, weakness, vomiting (all moderate
n/N (number of AEs per number of subjects in dose group) ([1]; 48 mg DB): 48 mg DB (2/8)
Possibly related AEs by subject ([1]; 48 mg DB): None
n/N (number of AEs per number of subjects in dose group) ([1]; 96 mg DB): 96 mg DB (2/8)
Possibly related AEs by subject ([1]; 96 mg DB, listed as Vodobatinib): Abdominal pain and soft stool; also recorded: Brain fog, worsening of right lower leg cramps
n/N (number of AEs per number of subjects in dose group) ([1]; 96 mg OL): 96 mg OL (2/4)
Possibly related AEs by subject ([1]; 96 mg OL, listed as Vodobatinib): Dry eyes; also recorded: Worsening of muscle cramps (“probably related”)
n/N (number of AEs per number of subjects in dose group) ([1]; 192 mg DB): 192 mg DB (3/8)
Possibly related AEs by subject ([1]; 192 mg DB, listed as Vodobatinib): Mild rash, epigastric pain; also recorded: Somnolence, worsening of left upper extremities resting tremor; also recorded: Erythematous, pruritic rash on torso and head
subjects discontinued due to AEs ([1]; 192 mg, 384 mg (double-blind), 24 mg (open-label)): Three
changes in laboratory values ([1]; PD patients): no clinically significant drug related changes
changes in the QT interval ([1]; PD patients): no drug-related changes
overall safety and tolerability ([1]; PD patients): acceptable safety and tolerability
changes in laboratory values ([1]; PD patients, listed as vodobatinib): no clinically significant drug-related changes
number of TEAEs, overall ([1]; PD subjects, 14 days): 63
subjects reporting TEAEs, overall ([1]; PD subjects, 14 days): 32
Most common treatment related TEAEs (>1 subject) ([1]; double-blind part): rash, abdominal pain and tremor
number of TEAEs ([1]; double-blind part): 42
subjects reporting TEAEs ([1]; double-blind part): Twenty-three
subjects reporting TEAEs ([1]; double-blind, 6 mg cohort): 3
subjects reporting TEAEs ([1]; double-blind, 12 mg cohort): 3
subjects reporting TEAEs ([1]; double-blind, 18 mg cohort): 2
subjects reporting TEAEs ([1]; double-blind, 24 mg cohort): one
subjects reporting TEAEs ([1]; double-blind, 48 mg cohort): one
subjects reporting TEAEs ([1]; double-blind, 96 mg cohort): 2
subjects reporting TEAEs ([1]; double-blind, 192 mg cohort): 3
subjects reporting TEAEs ([1]; double-blind, 384 mg cohort): 5
most severe TEAE ([1]; one subject, 48 mg group, treatment unrelated, resolved): asthenia of grade 3 severity
number of TEAEs ([1]; open-label part): 21
subjects reporting TEAEs ([1]; open-label part): Nine
number of TEAEs ([1]; open-label, 24 mg cohort (3 subjects)): 10
number of TEAEs ([1]; open-label, 48 mg cohort (3 subjects)): 6
number of TEAEs ([1]; open-label, 96 mg cohort (3 subjects)): 5
number of treatment related TEAEs ([1]; overall): 35
subjects reporting treatment related TEAEs ([1]; overall): Twenty-one
increase in exposure, capsule to powder (96 to 192 mg or 192 to 384 mg) [2]: approximately 1.4 fold
